Measured values reported in patent publication US7781565B2 (priority 2006, dated 2010).

Test system: NCI-60 cell lines
Assay type: cell-based, human

GLVRGFP was tested, and the “Cell Line with which the peptide (and its tripeptide motif) is associated” value (from here on “Cell Line with which the peptide”) was “SR Leukemia”.

With GGRCGAE the “Cell Line the peptide is associated with (peptide recovered from phage library selection on this NCI-60 cell line)” value was “BT-549 Breast”.

For LGLVHWV, the “Cell Line the peptide is associated with (peptide recovered from phage library selection on this NCI-60 cell line)” value was “MDA-MB-231 Breast”.

In the case of DGVSPLW, the “Cell Line the peptide is associated with (peptide recovered from phage library selection on this NCI-60 cell line)” value is reported as “TK-10 Renal”.

In the case of RLHYLRS, the “Cell Line (NCI-60 cell line the peptide and its motif are associated with)” value is reported as “M14 Melanoma”.

For GVLGCDG, the “Cell Line (NCI-60 cell line the peptide and its motif are associated with)” value was “PC3 Prostate”.

For VMDRGVA, the “Cell Line (NCI-60 cell line the peptide and its motif are associated with)” value was “UACC 257 Melanoma”.

For GSITGGS, the “Cell Line (NCI-60 cell line the peptide and its motif are associated with)” value was “IGROV1 Ovarian”.

In the case of PRLSDKS, the “Cell Line (NCI-60 cell line the peptide and its motif are associated with)” value is reported as “SK-MEL-28 Melanoma”.

SGWFAGS was tested, and the “Cell Line (NCI-60 cell line the peptide and its motif are associated with)” value was “SK-OV-3-3 Ovarian”.

For SGVSNPG, the “Cell Line the peptide is associated with (peptide recovered from phage library selection on this NCI-60 cell line)” value was “MDA-MB-231 Breast”.

For AGRSCNL, the “Cell Line (NCI-60 cell line the peptide is associated with)” value was “HCT-116 Colon”.

For RGLRSVN, the “Cell Line with which the peptide” value was “H226-Lung”.

For RLRSYVA, the “Cell Line (NCI-60 cell line the peptide and its motif are associated with)” value was 786-0 Renal.

In the case of AAGRIRP, the “Cell Line (NCI-60 cell line the peptide is associated with)” value is reported as “HCT-15 Colon”.

In the case of LAIRGLG, the “Cell Line (NCI-60 cell line the peptide is associated with)” value is reported as “SW620-Colon”.

For LRVSRGL, the “Cell Line the peptide is associated with (peptide recovered from phage library selection on this NCI-60 cell line)” value was “TK-10 Renal”.

For RWAGLVA, the “Cell Line (NCI-60 cell line the peptide is associated with)” value was “SF-295 CNS”.

THRNRSS was tested, and the “Cell Line with which the peptide” value was “SR Leukemia”.

With TNRFARG the “Cell Line the peptide is associated with (peptide recovered from phage library selection on this NCI-60 cell line)” value was “T-47D Breast”.

In the case of VRASSKR, the “Cell Line (NCI-60 cell line the peptide and its motif are associated with)” value is reported as “OVCAR-5 Ovarian”.

For LAGGVPG, the “Cell Line with which the peptide” value was “CCRF-CEM Leukemia”.

In the case of ARGGESA, the “Cell Line (NCI-60 cell line the peptide and its motif are associated with)” value is reported as “SK-OV-3-3 Ovarian”.

VVGGRRT was tested, and the “Cell Line the peptide is associated with (peptide recovered from phage library selection on this NCI-60 cell line)” value was “HS 578 T Breast”.

With GRVTWRS the “Cell Line (NCI-60 cell line the peptide and its motif are associated with)” value was “OVCAR-5 Ovarian”.

For RAHGLVC, the “Cell Line the peptide is associated with (peptide recovered from phage library selection on this NCI-60 cell line)” value was “RXF393 Renal”.

For ARGVLLM, the “Cell Line with which the peptide” value was “CCRF-CEM Leukemia”.

In the case of GSGGSVH, the “Cell Line with which the peptide” value is reported as “Hop-92-Lung”.

In the case of SGVSRGQ, the “Cell Line with which the peptide” value is reported as “Hop-92-Lung”.

With ARNAASP the “Cell Line with which the peptide” value was “A549-Lung”.

With VLGMRSS the “Cell Line with which the peptide” value was “SR Leukemia”.

In the case of SGVGSSL, the “Cell Line with which the peptide” value is reported as “EKVX-Lung”.

In the case of SGIGSGG, the “Cell Line with which the peptide” value is reported as “Hop-92-Lung”.

For WLLRSWS, the “Cell Line the peptide is associated with (peptide recovered from phage library selection on this NCI-60 cell line)” value was “CAIK-1 Renal”.

With GLRGSVW the “Cell Line (NCI-60 cell line the peptide is associated with)” value was “COLO-205-Colon”.

With SYWVGSS the “Cell Line the peptide is associated with (peptide recovered from phage library selection on this NCI-60 cell line)” value was “MCF-7 Breast”.

For AGRPDGV, the “Cell Line (NCI-60 cell line the peptide and its motif are associated with)” value was “DU-145 Prostate”.

For AASSWAV, the “Cell Line (NCI-60 cell line the peptide and its motif are associated with)” value was “M14 Melanoma”.

For VRGSRWR, the “Cell Line (NCI-60 cell line the peptide is associated with)” value was “HT-29 Colon”.

RGVASRS was tested, and the “Cell Line with which the peptide” value was “H460-Lung”.

With GGRLLRA the “Cell Line (NCI-60 cell line the peptide and its motif are associated with)” value was “DU-145 Prostate”.

In the case of NSKPLVS, the “Cell Line the peptide is associated with (peptide recovered from phage library selection on this NCI-60 cell line)” value is reported as “T-47D Breast”.

LKAGLRS was tested, and the “Cell Line (NCI-60 cell line the peptide and its motif are associated with)” value was “OVCAR-5 Ovarian”.

In the case of NMAGGQE, the “Cell Line (NCI-60 cell line the peptide and its motif are associated with)” value is reported as “IGROV1 Ovarian”.

For SGSVNRG, the “Cell Line with which the peptide” value was “RPMI-8226-Leukemia”.

With PIGAVMN the “Cell Line (NCI-60 cell line the peptide and its motif are associated with)” value was “DU-145 Prostate”.

In the case of LGSSGLR, the “Cell Line the peptide is associated with (peptide recovered from phage library selection on this NCI-60 cell line)” value is reported as “RXF393 Renal”.

RGLGRPV was tested, and the “Cell Line the peptide is associated with (peptide recovered from phage library selection on this NCI-60 cell line)” value was “NCI/ADR-RES Breast”.

With GGLKVWR the “Cell Line (NCI-60 cell line the peptide and its motif are associated with)” value was “PC3 Prostate”.

In the case of SRYSLRS, the “Cell Line with which the peptide” value is reported as “A549-Lung”.

For CAGRARR, the “Cell Line (NCI-60 cell line the peptide is associated with)” value was “SNB-75 CNS”.

GSGSSSR was tested, and the “Cell Line the peptide is associated with (peptide recovered from phage library selection on this NCI-60 cell line)” value was “TK-10 Renal”.
